pIC50: −log10 of the molar value.
Target: T1, FGFR2 (Homo sapiens, UniProt P21802)
T1 construct: endogenous amplified FGFR2 in NCI-H716 cells
Assay: FGFR2 Y653/[…] phosphorylation in NCI-H716 cells, western blot quantitation
Format: cell-based

T1 sequence (P21802 22-821): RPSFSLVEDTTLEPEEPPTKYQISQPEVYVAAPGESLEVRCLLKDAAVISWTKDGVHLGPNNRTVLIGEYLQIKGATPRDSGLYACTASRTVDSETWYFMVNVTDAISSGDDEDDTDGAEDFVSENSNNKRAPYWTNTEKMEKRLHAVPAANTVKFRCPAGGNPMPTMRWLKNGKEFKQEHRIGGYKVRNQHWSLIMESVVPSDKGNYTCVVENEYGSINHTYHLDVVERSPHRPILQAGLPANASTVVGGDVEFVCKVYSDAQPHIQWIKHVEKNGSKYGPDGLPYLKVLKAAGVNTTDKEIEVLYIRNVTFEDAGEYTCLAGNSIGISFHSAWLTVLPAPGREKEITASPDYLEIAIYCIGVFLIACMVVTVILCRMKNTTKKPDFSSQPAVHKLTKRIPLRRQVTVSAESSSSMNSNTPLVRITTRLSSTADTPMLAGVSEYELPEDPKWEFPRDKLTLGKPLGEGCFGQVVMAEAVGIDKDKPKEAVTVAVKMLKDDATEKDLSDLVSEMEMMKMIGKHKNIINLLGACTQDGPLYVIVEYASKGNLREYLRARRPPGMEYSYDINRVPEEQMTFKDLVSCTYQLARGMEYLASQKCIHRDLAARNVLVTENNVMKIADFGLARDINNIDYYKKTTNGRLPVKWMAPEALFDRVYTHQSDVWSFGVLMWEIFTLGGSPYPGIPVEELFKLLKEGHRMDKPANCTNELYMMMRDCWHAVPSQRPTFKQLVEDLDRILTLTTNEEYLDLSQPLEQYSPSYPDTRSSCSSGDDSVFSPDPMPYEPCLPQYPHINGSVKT

Work on `CN(C[C@@H]1COCCO1)S(=O)(=O)Nc1ccc2ccc3ncc(-c4cnn(C)c4)cc3c(=O)c2c1` [MK2461] yielded a pIC50 of 6.78.
